Reference: patent publication US20150018383A1, “BIOMARKERS OF RENAL DISORDERS” (Institut National de la Sante et de la Recherche Medicale …, priority 2011, published 2015)
“Also recorded” adds a separate entry of the source.

Key:
[1] = Urinary albumin excretion in renal transplant recipients; assay type: in vivo, human
Description: (§1) The study was conducted on 80 renal transplant recipients followed at the Renal Transplant Department of Necker hospital.
For human samples, urinary creatinine and albumin were determined using a Hitachi 917 analyzer (Roche Diagnostics), whereas plasma creatinine and sirolimus were evaluated using a Synchron Cx4 autoanalyser (Beckman Coulter) and high-performance liquid chromatography, respectively.

[2] = tested on: glomerular cells (TUNEL-positive nuclei); experiment: Glomerular TUNEL apoptosis assay in kidney transplant biopsies; assay type: in vivo, human; conditions: renal transplant recipients with lower eGFR, sirolimus-treated versus not treated
Description: as §1
Apoptosis was detected in 4-μm sections of paraffin-embedded kidneys by TUNEL assay using the In Situ Cell Death Detection kit (Roche) according to the manufacturer's protocol. The glomerular apoptotic index was calculated as the number of glomeruli with at least one TUNEL-positive nuclei for the total number of glomeruli. All the microscopic fields of a whole kidney section were quantified.

CO[C@H]1C[C@@H]2CC[C@@H](C)[C@@](O)(O2)C(=O)C(=O)N2CCCC[C@H]2C(=O)O[C@H]([C@H](C)C[C@@H]2CC[C@@H](O)[C@H](OC)C2)CC(=O)[C@H](C)/C=C(\C)[C@@H](O)[C@@H](OC)C(=O)[C@H](C)C[C@H](C)/C=C/C=C/C=C/1C [sirolimus]
development of albuminuria / proteinuria upon sirolimus treatment ([1]; cohort of kidney transplant recipients at different stages of renal failure): only patients with severe nephron reduction developed albuminuria; also recorded: marked proteinuria
urinary albumin excretion, serial follow-up ([1]; patient 1, on sirolimus administration): severe albuminuria
urinary albumin excretion, serial follow-up ([1]; patient 2, after removal of sirolimus): reversed albuminuria
glomerular apoptosis (TUNEL) [2]: marked increased of apoptosis; also recorded: increased glomerular apoptosis
